The test system of one assay is Npc1^nih Npc1^−/− mice. Briefly: Plasma 24(S)-hydroxy cholesterol ELISA after HPβCD. It is filed as in vivo, mouse. Here is the method:
Plasma 24-HC concentration was determined using ELISA kit from Enzo Life Sciences (Farmingdale, N.Y., USA) according to the manufacturer's instructions. Plasma was diluted to 1:1000 in supplied buffer and measurements were done in triplicate wells. Pure 24-HC (supplied with kit) was used to prepare the standard curve. 24-HC concentration was normalized to plasma protein content. Starting at P21 and once a week thereafter, Npc1^nih and Npc1^nmf164 mice were injected i.p with 20% 2-hydroxypropyl-beta-cyclodextrin (HPβCD, 4000 mg/Kg) prepared in 0.2% DMSO and 0.9% saline. Control mice received 0.2% DMSO in 0.9% saline. Blood was collected either via cheek bleed or terminal heart bleed from mice in EDTA tubes (BD Biosciences, San Jose, Calif., USA). Plasma was separated by centrifugation at 2500 rpm for 15 min and stored at −70° C. until used.
For orientation: In an ELISA, binding on a coated surface is turned into a signal by an enzyme label.

Assay [1] deals with Npc1^nmf164 homozygous mutant mice. Nature of the assay: Plasma lysozyme activity in HPβCD-treated Npc1^nmf164 mice. The note with it: once a week i.p. from age 21-27 days, plasma at 50-55 days, vs vehicle/untreated. It is filed as in vivo, mouse.

SMILES strings stand for the structures. Entries after “also recorded” stand apart in the source; their conditions may differ.

`CC(O)COC[C@H]1O[C@@H]2O[C@H]3[C@H](O)[C@@H](O)[C@@H](O[C@H]4[C@H](O)[C@@H](O)[C@@H](O[C@H]5[C@H](O)[C@@H](O)[C@@H](O[C@H]6[C@H](O)[C@@H](O)[C@@H](O[C@H]7[C@H](O)[C@@H](O)[C@@H](O[C@H]8[C@H](O)[C@@H](O)[C@@H](O[C@H]1[C@H](O)[C@H]2O)O[C@@H]8COCC(C)O)O[C@@H]7COCC(C)O)O[C@@H]6COCC(C)O)O[C@@H]5COCC(C)O)O[C@@H]4COCC(C)O)O[C@@H]3COCC(C)O` (stereo partly drawn) [HPβCD, 2-hydroxypropyl-beta-cyclodextrin]: the “24(S)-HC level in plasma” value in the assay with Npc1^nih Npc1^−/− mice is on record as “largely unaffected”. Moreover, the plasma lysozyme activity result in assay [1] was “significantly reduced; also recorded: rendered comparable to untreated wild type animals”; in assay [1] (listed as H∪CD), “decrease”.

Source of the values: patent US10597696B2, “Detection of Niemann-Pick disease comprising detection of lysozyme and cathepsins” (UNIVERSITY OF NOTRE DAME DU LAC, priority 2013, dated 2020).
